Data reported in the supplement of paper PMC10307832.

Columns and labels:
Experiment in all cases: relative viability (nuclei count vs DMSO), 5 days (fraction); higher = more cells survive
Motesanib + Vorinostat = compound: CC1(C)CNc2cc(NC(=O)c3cccnc3NCc3ccncc3)ccc21 [Motesanib] + O=C(CCCCCCC(=O)Nc1ccccc1)NO [Vorinostat] (partner 1 µM)
How it was run: (§1)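 Five library-drug doses in √10 steps were combined with a fixed anchor-drug dose, or a single drug was given alone, by pin tool to lung cancer cell lines in 1536-well plates the day after seeding. Nuclei were stained and counted after 5 days. Relative viability is the nuclei count in treated wells over that in vehicle wells, taken as the median of duplicate plates.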

[1] = compound: C[C@@]1(C(=O)Nc2ccc(F)nc2)CCCN1c1nc(Nc2cc(C3CC3)n[nH]2)c2cccn2n1 + CCNC(=O)c1noc(-c2cc(C(C)C)c(O)cc2O)c1-c1ccc(CN2CCOCC2)cc1 [Luminespib] (partner 0.01 µM)
How it was run: as §1

[2] = compound: C[C@@]1(C(=O)Nc2ccc(F)nc2)CCCN1c1nc(Nc2cc(C3CC3)n[nH]2)c2cccn2n1 + Cc1cc(Nc2cc(N3CCN(C)CC3)nc(Sc3ccc(NC(=O)C4CC4)cc3)n2)n[nH]1 [Tozasertib] (partner 0.1 µM)
How it was run: as §1

[3] = compound: C[C@@]1(C(=O)Nc2ccc(F)nc2)CCCN1c1nc(Nc2cc(C3CC3)n[nH]2)c2cccn2n1 + O=C(c1cc(Cc2n[nH]c(=O)c3ccccc23)ccc1F)N1CCN(C(=O)C2CC2)CC1 [Olaparib] (partner 8 µM)
How it was run: as §1

Cell Line | relative viability (Motesanib + Vorinostat; first compound 0.01 µM) | relative viability (Motesanib + Vorinostat; first compound 0.03162 µM) | relative viability (Motesanib + Vorinostat; first compound 0.1 µM) | relative viability (Motesanib + Vorinostat; first compound 0.3162 µM) | relative viability (Motesanib + Vorinostat; first compound 1 µM) | relative viability ([1]; first compound 0.04 µM) | relative viability ([1]; first compound 0.1265 µM) | relative viability ([1]; first compound 0.4 µM) | relative viability ([1]; first compound 1.265 µM) | relative viability ([2]; first compound 0.04 µM) | relative viability ([2]; first compound 0.1265 µM) | relative viability ([2]; first compound 0.4 µM) | relative viability ([2]; first compound 1.265 µM) | relative viability ([3]; first compound 0.04 µM) | relative viability ([3]; first compound 0.1265 µM) | relative viability ([3]; first compound 0.4 µM) | relative viability ([3]; first compound 1.265 µM)
LK-2 | 0.271 | 0.311 | 0.386 | 0.433 | 0.486 | 0.159 | 0.204 | 0.174 | 0.169 | 0.178 | 0.169 | 0.187 | 0.175 | 0.38 | 0.287 | 0.29 | 0.35
201T | 0.929 | 0.974 | 1.08 | 1.01 | 1.01 | 0.878 | 0.84 | 0.799 | 1.02 | 0.827 | 0.709 | 0.431 | 0.863 | 0.755 | 0.725 | 0.729 | 0.9
HCC-44 | 1.14 | 1.02 | 1.17 | 1.08 | 1.09 | 0.829 | 0.744 | 0.623 | 0.732 | 0.858 | 0.616 | 0.574 | 0.362 | 0.94 | 0.879 | 0.867 | 0.911
NCI-H596 | 0.586 | 0.546 | 0.56 | 0.511 | 0.711 | 0.819 | 0.885 | 0.88 | 1.17 | 0.883 | 0.748 | 0.683 | 0.71 | 0.714 | 0.697 | 0.608 | 0.571
H3255 | 0.694 | 0.88 | 0.661 | 0.893 | 0.773 | 1.02 | 0.982 | 0.89 | 0.811 | 0.695 | 0.781 | 0.656 | 0.582 | 0.638 | 0.643 | 0.523 | 0.548
NCI-H647 | 0.506 | 0.575 | 0.567 | 0.769 | 0.894 | 0.152 | 0.245 | 0.181 | 0.164 | 0.543 | 0.217 | 0.159 | 0.123 | 0.607 | 0.487 | 0.368 | 0.505
NCI-H2023 | 0.729 | 0.606 | 0.615 | 0.838 | 0.723 | 0.58 | 0.336 | 0.37 | 0.192 | 0.337 | 0.31 | 0.174 | 0.118 | 0.456 | 0.422 | 0.333 | 0.122
NCI-H23 | 0.597 | 0.549 | 0.516 | 0.741 | 0.51 | 0.21 | 0.211 | 0.213 | 0.214 | 0.382 | 0.269 | 0.316 | 0.516 | 0.252 | 0.227 | 0.225 | 0.21
NCI-H1944 | 0.52 | 0.562 | 0.51 | 0.634 | 0.537 | 0.562 | 0.652 | 0.399 | 0.586 | 0.251 | 0.239 | 0.203 | 0.245 | 0.413 | 0.394 | 0.362 | 0.492
NCI-H1793 | 0.836 | 0.776 | 0.725 | 0.892 | 0.757 | 0.581 | 0.18 | – | 0.604 | 0.631 | 0.283 | – | 0.789 | 0.751 | 0.668 | 0.475 | 0.772
NCI-H520 | 0.664 | 0.759 | 0.687 | 0.734 | 0.686 | 0.214 | 0.242 | 0.267 | 0.211 | 0.48 | – | 0.442 | 0.423 | 0.334 | 0.33 | 0.298 | 0.291
NCI-H460 | 0.635 | 0.696 | 0.716 | 0.726 | 0.666 | 0.0318 | 0.0246 | 0.0368 | 0.0359 | 0.525 | 0.487 | 0.26 | 0.136 | 0.495 | 0.334 | 0.346 | 0.23
EKVX | 0.777 | 0.819 | 0.777 | 0.895 | 0.867 | 0.804 | 0.67 | 0.683 | 0.935 | 0.363 | 0.349 | 0.259 | 0.28 | 0.874 | 0.644 | 0.635 | 0.735
NCI-H358 | 0.641 | 0.67 | 0.71 | 0.819 | 0.649 | 0.35 | 0.143 | 0.111 | 0.238 | 0.0856 | 0.0931 | 0.0786 | 0.0689 | 0.477 | 0.311 | 0.183 | 0.233
EPLC-272H | 0.385 | 0.518 | 0.448 | 0.479 | 0.477 | 0.214 | – | 0.187 | 0.272 | 0.182 | – | 0.178 | 0.287 | 0.792 | 0.513 | 0.489 | 0.571
NCI-H1395 | 0.56 | 0.526 | 0.707 | 0.794 | 0.677 | 0.768 | 0.717 | 0.583 | 0.889 | 0.783 | 0.741 | 0.74 | 0.61 | 0.505 | 0.437 | 0.408 | 0.497
